Data reported in PubChem BioAssay AID1963828 (Molecular Pharmacology Branch, DTP, NCI, 2024).

Tested on: 991263-137-R1-J2-PDC complex spheroid viability
Assay: Anticancer human tumor 991263-137-R1-J2-PDC patient-derived colon adenocarcinoma cell line growth inhibition [POLQ]
Settings: for IC50: curve of first compound; for viability, T/C: stronger effect = lower value
Outline: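 Patient-derived tumour cells were co-cultured with HUVEC and mesenchymal stem cells as multicellular spheroids at 37 °C. They were treated with POLQ inhibitors (novobiocin, ART-558, RP6685) alone or combined with other agents. Top concentrations were at or near clinical Cmax (otherwise 10 microM; SN-38 at 1 microM), decreasing in half-log steps.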

[1] = second compound 0.0316 µM, first compound 0.0316 µM
[2] = second compound 0.0316 µM, first compound 0.1 µM
[3] = second compound 0.0316 µM, first compound 0.316 µM
[4] = second compound 0.0316 µM, first compound 1 µM
[5] = second compound 0.0316 µM, first compound 3.16 µM
[6] = second compound 0.0316 µM, first compound 10 µM
[7] = second compound 0.1 µM, first compound 0.0316 µM
[8] = second compound 0.1 µM, first compound 0.1 µM
[9] = second compound 0.1 µM, first compound 0.316 µM
[10] = second compound 0.1 µM, first compound 1 µM
[11] = second compound 0.1 µM, first compound 3.16 µM
[12] = second compound 0.1 µM, first compound 10 µM
[13] = second compound 0.316 µM, first compound 0.0316 µM
[14] = second compound 0.316 µM, first compound 0.1 µM
[15] = second compound 0.316 µM, first compound 0.316 µM
[16] = second compound 0.316 µM, first compound 1 µM
[17] = second compound 0.316 µM, first compound 3.16 µM
[18] = second compound 0.316 µM, first compound 10 µM
[19] = second compound 1 µM, first compound 0.0316 µM
[20] = second compound 1 µM, first compound 0.1 µM
[21] = second compound 1 µM, first compound 0.316 µM
[22] = second compound 1 µM, first compound 1 µM
[23] = second compound 1 µM, first compound 3.16 µM
[24] = second compound 1 µM, first compound 10 µM
[25] = second compound 3.16 µM, first compound 0.0316 µM
[26] = second compound 3.16 µM, first compound 0.1 µM
[27] = second compound 3.16 µM, first compound 0.316 µM
[28] = second compound 3.16 µM, first compound 1 µM
[29] = second compound 3.16 µM, first compound 3.16 µM
[30] = second compound 3.16 µM, first compound 10 µM
[31] = second compound 10 µM, first compound 0.0316 µM
[32] = second compound 10 µM, first compound 0.1 µM
[33] = second compound 10 µM, first compound 0.316 µM
[34] = second compound 10 µM, first compound 1 µM
[35] = second compound 10 µM, first compound 3.16 µM
[36] = second compound 10 µM, first compound 10 µM
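Further: spheroids exposed to compounds for 7 days before readout.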
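Wherever viability, T/C is given: 100% = DMSO vehicle control viability.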

Q: How did the IC50 (second compound 0.0316 µM) turn out when `CC1COCCN1c1cc(C2(O)CC3CCC(C2)O3)c2cnn(-c3ccn[nH]3)c2n1` (centres undefined) + COC1C(OC(N)=O)C(O)C(Oc2ccc3c(O)c(NC(=O)c4ccc(O)c(CC=C(C)C)c4)c(=O)oc3c2C)OC1(C)C was run?
A: The IC50 was 1460 nM.

Q: And the IC50 (second compound 0.1 µM)?
A: Its IC50 is 1930 nM.

Q: What about the IC50 (second compound 0.316 µM) of the same compound?
A: Its IC50 is 947 nM.

Q: And the IC50 (second compound 1 µM)?
A: The IC50 was 1580 nM.

Q: What about the IC50 (second compound 3.16 µM) of the same compound?
A: Its IC50 is 1870 nM.

Q: What about the IC50 (second compound 10 µM) of the same compound?
A: The IC50 was 1450 nM.

Q: And the viability, T/C [1]?
A: The viability, T/C was 85.5%.

Q: And the viability, T/C [2]?
A: Its viability, T/C is 95.5%.

Q: What about the viability, T/C [3] of the same compound?
A: The viability, T/C was 81.5%.

Q: And the viability, T/C [4]?
A: The viability, T/C was 58.6%.

Q: And the viability, T/C [5]?
A: Its viability, T/C is 33.2%.

Q: And the viability, T/C [6]?
A: The viability, T/C was 29.4%.

Q: And the viability, T/C [7]?
A: The viability, T/C was 102%.

Q: What about the viability, T/C [8] of the same compound?
A: Its viability, T/C is 95.3%.

Q: And the viability, T/C [9]?
A: The viability, T/C was 80.4%.

Q: What about the viability, T/C [10] of the same compound?
A: Its viability, T/C is 64.8%.

Q: And the viability, T/C [11]?
A: The viability, T/C was 39%.

Q: What about the viability, T/C [12] of the same compound?
A: Its viability, T/C is 25%.

Q: What about the viability, T/C [13] of the same compound?
A: The viability, T/C was 106%.

Q: And the viability, T/C [14]?
A: The viability, T/C was 100%.

Q: What about the viability, T/C [15] of the same compound?
A: The viability, T/C was 78.9%.

Q: And the viability, T/C [16]?
A: The viability, T/C was 50.5%.

Q: What about the viability, T/C [17] of the same compound?
A: Its viability, T/C is 26.5%.

Q: What about the viability, T/C [18] of the same compound?
A: The viability, T/C was 26.1%.

Q: And the viability, T/C [19]?
A: The viability, T/C was 104%.

Q: What about the viability, T/C [20] of the same compound?
A: The viability, T/C was 106%.

Q: And the viability, T/C [21]?
A: Its viability, T/C is 85.7%.

Q: What about the viability, T/C [22] of the same compound?
A: Its viability, T/C is 59.8%.

Q: And the viability, T/C [23]?
A: Its viability, T/C is 36.2%.

Q: And the viability, T/C [24]?
A: The viability, T/C was 23.7%.

Q: What about the viability, T/C [25] of the same compound?
A: The viability, T/C was 89.8%.

Q: And the viability, T/C [26]?
A: The viability, T/C was 76.4%.

Q: And the viability, T/C [27]?
A: Its viability, T/C is 73.9%.

Q: And the viability, T/C [28]?
A: Its viability, T/C is 56.1%.

Q: And the viability, T/C [29]?
A: The viability, T/C was 46%.

Q: And the viability, T/C [30]?
A: Its viability, T/C is 21.6%.

Q: What about the viability, T/C [31] of the same compound?
A: The viability, T/C was 84.7%.

Q: And the viability, T/C [32]?
A: Its viability, T/C is 95.8%.

Q: And the viability, T/C [33]?
A: Its viability, T/C is 74.3%.

Q: And the viability, T/C [34]?
A: The viability, T/C was 56.4%.

Q: What about the viability, T/C [35] of the same compound?
A: Its viability, T/C is 36.7%.

Q: And the viability, T/C [36]?
A: The viability, T/C was 21.2%.

Q: With `O=C(Nc1ccc(O)c(NS(=O)(=O)c2ccc(F)cc2)c1)c1ccc(-c2ccccc2)cc1` + COC1C(OC(N)=O)C(O)C(Oc2ccc3c(O)c(NC(=O)c4ccc(O)c(CC=C(C)C)c4)c(=O)oc3c2C)OC1(C)C as the compound, how does the IC50 (second compound 0.0316 µM) read?
A: The IC50 was greater than 10000 nM.

Q: And the IC50 (second compound 0.1 µM)?
A: The IC50 was greater than 10000 nM.

Q: What about the IC50 (second compound 0.316 µM) of the same compound?
A: The IC50 was greater than 10000 nM.

Q: What about the IC50 (second compound 1 µM) of the same compound?
A: The IC50 was greater than 10000 nM.

Q: What about the IC50 (second compound 3.16 µM) of the same compound?
A: Its IC50 is greater than 10000 nM.

Q: What about the IC50 (second compound 10 µM) of the same compound?
A: Its IC50 is greater than 10000 nM.

Q: What about the viability, T/C [1] of the same compound?
A: The viability, T/C was 87.8%.

Q: And the viability, T/C [2]?
A: Its viability, T/C is 111%.

Q: And the viability, T/C [3]?
A: Its viability, T/C is 112%.

Q: And the viability, T/C [4]?
A: Its viability, T/C is 93.5%.

Q: What about the viability, T/C [5] of the same compound?
A: Its viability, T/C is 89.3%.

Q: What about the viability, T/C [6] of the same compound?
A: The viability, T/C was 105%.

Q: What about the viability, T/C [7] of the same compound?
A: Its viability, T/C is 110%.

Q: And the viability, T/C [8]?
A: The viability, T/C was 119%.

Q: What about the viability, T/C [9] of the same compound?
A: The viability, T/C was 113%.

Q: And the viability, T/C [10]?
A: Its viability, T/C is 79.6%.

Q: What about the viability, T/C [11] of the same compound?
A: Its viability, T/C is 110%.

Q: And the viability, T/C [12]?
A: Its viability, T/C is 93.5%.

Q: And the viability, T/C [13]?
A: Its viability, T/C is 93.9%.

Q: What about the viability, T/C [14] of the same compound?
A: The viability, T/C was 112%.

Q: And the viability, T/C [15]?
A: The viability, T/C was 92.8%.

Q: And the viability, T/C [16]?
A: Its viability, T/C is 106%.

Q: And the viability, T/C [17]?
A: The viability, T/C was 93.1%.

Q: And the viability, T/C [18]?
A: The viability, T/C was 92.8%.

Q: And the viability, T/C [19]?
A: The viability, T/C was 119%.

Q: What about the viability, T/C [20] of the same compound?
A: Its viability, T/C is 101%.

Q: What about the viability, T/C [21] of the same compound?
A: The viability, T/C was 100%.

Q: And the viability, T/C [22]?
A: Its viability, T/C is 109%.

Q: What about the viability, T/C [23] of the same compound?
A: Its viability, T/C is 109%.

Q: What about the viability, T/C [24] of the same compound?
A: Its viability, T/C is 96.3%.

Q: And the viability, T/C [25]?
A: Its viability, T/C is 101%.

Q: And the viability, T/C [26]?
A: The viability, T/C was 103%.

Q: And the viability, T/C [27]?
A: Its viability, T/C is 91.2%.

Q: And the viability, T/C [28]?
A: Its viability, T/C is 79.1%.

Q: And the viability, T/C [29]?
A: The viability, T/C was 111%.

Q: What about the viability, T/C [30] of the same compound?
A: The viability, T/C was 79.6%.

Q: And the viability, T/C [31]?
A: The viability, T/C was 96.5%.

Q: What about the viability, T/C [32] of the same compound?
A: Its viability, T/C is 112%.

Q: And the viability, T/C [33]?
A: The viability, T/C was 103%.

Q: What about the viability, T/C [34] of the same compound?
A: Its viability, T/C is 104%.

Q: And the viability, T/C [35]?
A: The viability, T/C was 102%.

Q: And the viability, T/C [36]?
A: Its viability, T/C is 91.5%.
